Article PMC4326127, “Collagen Inhibitory Peptide R1R2 Mediates Vascular Remodeling by Decreasing Inflammation and Smooth Muscle Cell Activation” (PLoS ONE, 2015)

Key:
[1] = system: binding of FN to collagen type I; experiment: Solid-phase binding assay (competitive ELISA) of FN to collagen; design: species or system human FN; rat collagen type I; details: 4 nM FN incubated with peptide at 4°C overnight, then on wells coated with 10 μg/ml collagen I overnight at 37°C; anti-FN/HRP, ABTS, A405
Description: Human FN and rat collagen type I for competitive ELISA were purchased from Sigma-Aldrich (St. Louis, MO).
The FN-peptide solutions were added to collagen or BSA-coated wells, and the plates were incubated overnight at 37°C. The wells were washed and a rabbit anti-FN antibody was added for 90 minutes at room temperature. Wells were washed and then incubated with a horseradish peroxidase-conjugated secondary antibody. After washing was completed, peroxidase activity was quantified using 2,2'-azino-bis-(3-ethylbenthiazoline-6-sulfonic acid). Measurements were done at 405 nm (A405) using a SpectraMax M5 microplate reader (Molecular Device, Sunnyvale, CA).
Bound FN was detected with an anti-FN antibody followed by HRP-conjugated secondary antibody, and ABTS as described in Methods. The absorbance at 405nm was quantitated.

[2] = system: left common carotid artery (flow-induced vascular remodeling); experiment: Morphometric analysis of carotid artery after complete common carotid ligation; type: in vivo, FVB/NJ (FVB) mice; details: periadventitial
From the text: (§1) Animals were anesthetized with isoflurane inhalation. The left common carotid artery was exposed, dissected free from the surrounding connective tissue and completely ligated with 6-0 silk suture just proximal to the carotid bifurcation. […] 4–10 mice were included in each experimental group.
5 groups of animals were processed for morphometric analysis. Mice were fixed with 10% formalin 7 or 14 days after the surgery. The common carotid arteries were harvested and embedded in paraffin.
(§2) For in vivo experiments, the data are shown as the mean ± SEM. For in vitro experiments, the data shown are the means ± SD of a representative experiment, at least 3 independent experiments were performed. One-way ANOVA with post-hoc testing were used for data analysis with GraphPad Prism software (GraphPad, San Diego, CA). If normality test failed, nonparametric Kruskal-Wallis test followed by Dunn's post-hoc test were used. P > 0.05 was not considered significant.

collagen type I = experiment: IHC for collagen type I in ligated carotid artery; type: in vivo, FVB/NJ (FVB) mice; details: 7 days after surgery; 20 μM peptide in pluronic gel; mean ± SEM; R1R2 n = 6, scrambled n = 6
Description: as §1
(§3) Paraffin sections selected from the first mm of the carotid artery in each group were used for immunohistochemistry (IHC). […] Sections were then incubated with appropriate biotinylated secondary antibodies followed by avidin-biotin immunoperoxidase system (Vector Laboratories, Burlingame, CA). Liquid DAB Substrate Chromogen system (Dako, Carpinteria, CA) was used for detection.
(§4) Quantitative IHC analysis was performed on digital images captured with a 20x objective by using Image-Pro Plus software. Data from 3–6 mice for each group were averaged, and the average values ± SEM were shown. For FN, collagen type I, SM-MHC and SM α-actin, color digital images were transformed into gray scale, and the sum of the optical densities from the intima+media area in each section was determined. […] The percent of positive cells is reported as the proliferation index. […] The intima+media region was traced manually. The percent of positively stained area in intima+media to the total traced area was assessed.
(§5) For in vivo experiments, the data are shown as the mean ± SEM. […]

collagen = experiment: Hydroxyproline assay of carotid collagen content; type: in vivo, FVB/NJ (FVB) mice; details: 14 days post-ligation; three carotid arteries pooled per group; colorimetric chloramine T; mean ± SEM, n = 3
Description: as §1
After reconstituting with water, samples were measured using a colorimetric chloramine T assay. Three independent experiments were performed for statistical analysis.
as §2

FN = experiment: IHC for FN in ligated carotid artery; type: in vivo, FVB/NJ (FVB) mice; details: mean ± SEM
Description: as §1, §3, §4, §2

[3] = system: smooth muscle α-actin (SMAA); experiment: IHC for smooth muscle α-actin in ligated carotid artery; type: in vivo, FVB/NJ (FVB) mice; details: 7 days post-ligation; mean ± SEM; scrambled n = 6, R1R2 n = 5 (sham 0.232 ± 0.011, n = 5)
Description: as §1, §3, §4, §5

CD45 (+) leukocytes = experiment: CD45 IHC, leukocyte infiltration in carotid intima-media; type: in vivo, FVB/NJ (FVB) mice; details: 7 days after ligation; percent of positively stained area; mean ± SEM; R1R2 n = 5, scrambled n = 6
Description: as §1, §3, §4, §2

VCAM-1 = VCAM-1 IHC in ligated carotid artery; type: in vivo, FVB/NJ (FVB) mice; details: 7 days after ligation; percent of positively stained area; mean ± SEM; R1R2 n = 7, control peptide n = 9
Description: as §1, §3, §4, §5

ICAM-1 = ICAM-1 IHC in ligated carotid artery; type: in vivo, FVB/NJ (FVB) mice; details: 7 days after ligation; percent of positively stained area; mean ± SEM; R1R2 n = 7, control peptide n = 8
Description: as §1, §3, §4, §5

A7r5 SMCs [4] = experiment: A7r5 SMC growth study; type: cell-based; details: 48hr; 10% FBS after serum starvation and 36 hours peptide treatment; hemocytometer, trypan blue; mean ± SD, n = 5
Description: (§6) Human umbilical vein endothelial cells (HUVECs) and A7r5 SMCs were provided by Resource Center (SB3, NSC 100-2325-B-080-001), National Research Program for Biopharmaceuticals (Hsinchu, Taiwan). HUVECs were maintained in M199 (Life Technologies, Carlsbad, CA) with 25U/ml heparin (Sigma-Aldrich, St. Louis, MO), 10% fetal bovine serum (FBS) and endothelial cell growth supplement (ECGS; Millipore, Billerica, MA). A7r5 SMCs were grown in Dulbecco’s Modified Eagle’s Medium (DMEM) containing high glucose, supplemented with 10% fetal bovine serum. Human U937 cells were grown in RPMI1640 with 10% FBS.
A7r5 cells and HUVECs were growth-arrested and then stimulated with 10% FBS or 10 ng/ml TNF-αovernight after serum starvation as indicated in the figure legend. Briefly, trypan blue-excluding cells were counted with a hemocytometer, and data were analyzed using GraphPad Prism Software (San Diego, CA) as in previous studies. A second observer performed a similar analysis to verify the initial findings.
as §2
Fig 6 R1R2 reduces SMC proliferation and migration. (A) A7r5 SMC growth study over 96 hours. After serum starvation and treatment with R1R2 or scrambled peptides for 36 hours, cells were stimulated with 10% FBS over 96 hours. Cells were counted at the indicated time in the figure (n = 5). (B) A7r5 SMCs were pretreated with R1R2 or scramble peptide for 36 hours. […] (C) Quantitation of SMC migration in the scratch wound healing assay was performed by subtracting the cell-free area 30 hours after PDGF-BB stimulation from the cell-free area in the beginning (n = 5). * indicates p<0.05 and ** p< 0.01.

A7r5 SMCs [5] = experiment: SMC migration, scrape wound assay; type: cell-based; details: A7r5 SMCs, 36 hours peptide pretreatment, 10 ng/ml PDGF-BB, 30 hours; mean ± SD, n = 3
Description: as §6
A scrape wound assay was used to assess the effect of R1R2 and scrambled peptides on SMC migration as described. Briefly, A7r5 SMCs were grown until 90% confluent, followed by serum starvation and treatment with R1R2 and scrambled peptides for 36 hours. Several scrape wounds were then performed across the dish with a sterile yellow pipet tip. We initiated the experiment with treatment of cells with 10 ng/ml PDGF-BB. Photographs of the wound area were taken immediately after PDGF-BB addition (0 hour) and 30 hours postwounding with an Olympus CKX-41 microscope connected to a camera. At least three photographs were taken per group at each time point. Wound areas were determined using Image-Pro Software (Media Cybernetics, MD). Measurement of migration was determined by subtracting the cell-free area 30 hours after PDGF-BB addition from the cell-free area in the beginning of scrape wounds.
For in vivo experiments, the data are shown as the mean ± SEM. For in vitro experiments, the data shown are the means ± SD of a representative experiment, at least 3 independent experiments were performed. […]
Fig 6 R1R2 reduces SMC proliferation and migration. […] Cells were counted at the indicated time in the figure (n = 5). […] (C) Quantitation of SMC migration in the scratch wound healing assay was performed by subtracting the cell-free area 30 hours after PDGF-BB stimulation from the cell-free area in the beginning (n = 5). * indicates p<0.05 and ** p< 0.01.

U937 cells / HUVECs [6] = experiment: Monocyte U937 adhesion to HUVECs; type: cell-based, human; details: HUVECs treated with 10 ng/ml TNF-α; calcein-AM U937 5x10^5 cells/well, 30 minutes at 37°C; fluorescence 485/535; mean ± SD
Description: as §2

U937 cells / HUVECs [7] = experiment: Monocyte U937 transendothelial migration assay; type: cell-based, human; details: HUVECs on 5um transwells, 10 ng/ml TNF-α; U937 1.5x10^5 cells/transwell, 1.5 hours at 37°C; fluorescence 485/535; mean ± SD
Description: as §2

[8] = 7 day after ligation, 20 μM peptide in 50 μl F-127 pluronic gel, mean ± SEM, scrambled n = 4, R1R2 n = 10
[9] = 14 day after ligation, 20 μM peptide in 50 μl F-127 pluronic gel, mean ± SEM, scrambled n = 4, R1R2 n = 9

Q: How did the “effect on FN-collagen type I binding” value [1] turn out when “PGPGAEQPEQSKERNSQERGNGLALPGEELEGQEGGNKPSGENNGPPQGNLRGPLEG [scrambled peptide, reference compound]” was run?
A: had no effect on FN-collagen binding

Q: What about the “effect on neointimal formation” value ([2]; 7 and 14 days post-ligation, 20 μM peptide in pluronic gel, in words) of the same sequence?
A: have no effect on neointimal formation

Q: And the “EEL Area” value [2, 8]?
A: 91403 ± 3805 (n = 4) μm^2

Q: What about the Lumen [2, 8] of the same sequence?
A: 44901 ± 4552 (n = 4) μm^2

Q: What about the “EEL Area” value [2, 9] of the same sequence?
A: 92240 ± 13572 (n = 4) μm^2

Q: And the “Intima+Media” value [2, 9]?
A: 65441 ± 11973 (n = 4) μm^2

Q: And the Lumen [2, 9]?
A: 37551 ± 11976 (n = 4) μm^2

Q: And the “collagen type I IHC intensity in intima-media area” value (collagen type I)?
A: 0.198 ± 0.007

Q: What about the “collagen content, hydroxyproline assay” value (collagen) of the same sequence?
A: 2.133 ± 0.284

Q: And the “FN IHC intensity in intima-media area” value (FN; 7 days after ligation, R1R2 n = 6, scrambled n = 6)?
A: 0.144 ± 0.005

Q: What about the “FN IHC intensity in intima-media area” value (FN; 14 days after ligation, R1R2 n = 7, scrambled n = 7) of the same sequence?
A: 0.338 ± 0.016

Q: What about the “SMAA IHC staining in intima-media area” value [3] of the same sequence?
A: 0.176 ± 0.004

Q: What about the “CD45 (+) area in intima-media” value (CD45 (+) leukocytes) of the same sequence?
A: 0.441 ± 0.049%

Q: What about the “VCAM-1 (+) area in intima-media” value (VCAM-1) of the same sequence?
A: 25.72 ± 1.966%

Q: What about the “ICAM-1 (+) area in intima-media” value (ICAM-1) of the same sequence?
A: 30.39 ± 3.016%

Q: And the “A7r5 SMC growth, cell number” value (A7r5 SMCs [4])?
A: 2.740 ± 0.688 x 10^5

Q: And the “SMC migration (cell-free area at 0 h minus cell-free area at 30 hours)” value (A7r5 SMCs [5])?
A: 313537 ± 66925

Q: What about the “U937 adhesion to HUVECs” value (U937 cells / HUVECs [6]) of the same sequence?
A: 259093 ± 14720 cells per cm^2

Q: And the U937 transendothelial migration (U937 cells / HUVECs [7])?
A: 110055 ± 42517 cells per well
